According to patent publication US7279498B2, “Substituted aryl amides as IP antagonists” (Roche Palo Alto LLC, priority 2003, dated 2007):

Assays:
hERG potassium channel = biological target: T1, hERG potassium channel (Homo sapiens, UniProt Q12809); experiment: hERG Potassium Channel Pharmacology Screening (whole-cell patch-clamp, CHO-K1 cells); assay type: cell-based; settings: CHO-K1 cells expressing recombinant human hERG channel, read-out: hERG outward current inhibition percentage
T1 construct: expressed in transfected cells; host or cells: CHO-K1 cells
T1 sequence (Q12809 whole entry): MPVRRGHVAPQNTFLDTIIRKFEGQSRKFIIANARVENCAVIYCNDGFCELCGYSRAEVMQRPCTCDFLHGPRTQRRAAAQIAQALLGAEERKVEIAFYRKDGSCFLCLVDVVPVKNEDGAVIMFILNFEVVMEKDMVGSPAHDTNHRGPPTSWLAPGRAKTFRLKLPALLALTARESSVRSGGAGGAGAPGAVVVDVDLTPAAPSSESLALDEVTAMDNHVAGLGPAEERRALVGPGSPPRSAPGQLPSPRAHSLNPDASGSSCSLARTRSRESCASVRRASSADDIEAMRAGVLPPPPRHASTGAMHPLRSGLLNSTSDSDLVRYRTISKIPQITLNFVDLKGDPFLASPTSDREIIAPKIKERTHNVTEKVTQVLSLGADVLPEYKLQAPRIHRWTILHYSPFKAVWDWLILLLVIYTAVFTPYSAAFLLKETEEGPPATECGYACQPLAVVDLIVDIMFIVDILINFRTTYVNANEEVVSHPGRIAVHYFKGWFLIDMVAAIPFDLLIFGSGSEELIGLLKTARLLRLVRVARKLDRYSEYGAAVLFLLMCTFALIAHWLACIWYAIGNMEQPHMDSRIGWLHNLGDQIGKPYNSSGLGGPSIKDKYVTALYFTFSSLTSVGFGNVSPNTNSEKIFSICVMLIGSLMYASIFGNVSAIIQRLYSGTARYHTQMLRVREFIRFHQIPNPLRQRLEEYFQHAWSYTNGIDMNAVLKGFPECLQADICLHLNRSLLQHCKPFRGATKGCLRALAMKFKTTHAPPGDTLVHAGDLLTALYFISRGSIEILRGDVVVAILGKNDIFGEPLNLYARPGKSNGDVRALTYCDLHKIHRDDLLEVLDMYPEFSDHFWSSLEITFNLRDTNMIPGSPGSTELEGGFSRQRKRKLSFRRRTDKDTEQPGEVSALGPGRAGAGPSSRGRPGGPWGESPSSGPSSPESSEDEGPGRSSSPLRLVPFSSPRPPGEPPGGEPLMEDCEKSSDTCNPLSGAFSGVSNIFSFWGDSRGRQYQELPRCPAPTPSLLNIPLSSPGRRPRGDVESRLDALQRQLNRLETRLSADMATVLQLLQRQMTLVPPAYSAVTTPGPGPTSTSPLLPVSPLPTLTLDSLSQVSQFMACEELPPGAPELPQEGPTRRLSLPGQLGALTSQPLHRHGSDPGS
Description: The effects of the subject compounds on recombinant hERG potassium channels expressed in CHO-K1 cells was determined according to the procedure reported by Hamill et al., 1981, Pflügers Arch., 391, 85–100
The following solutions were used to isolate potassium currents in cultured cell lines: extracellular (in mM), NaCl (150), KCl (4), HEPES (10), CaCl2 (1.2), MgCl2 (1), adjusted to pH 7.4 with NaOH; intracellular (in mM), KCl (140), HEPES (10), EGTA (5), MgCl2 (6), ATP-Na2 (5), adjusted to pH 7.2 with KOH.
Whole-cell patch-clamp methods were used to record potassium currents from CHO.K1 cells expressing the human hERG channel. Each cell was held at a negative holding potential of −80 mV. […] Peak tail current amplitudes at the different test potentials were measured to obtain the current-voltage relationship.
A second protocol was used to investigate the effects of compounds on hERG currents. […] Drugs were applied once a stable baseline has been recorded for 5 min. […]
Voltage-dependent potassium currents were recorded from single cells at room temperature (20–22° C.) using the whole-cell configuration of the patch-clamp technique. […]
The peak amplitude of outward currents are measured using Clampfit software to find peak amplitude. […]
Statistics were calculated using Microcal Origin and Prism software, and results were reported as mean+/−standard error of the mean. […]

[1] = biological target: T2, rat prostanoid IP receptor (Rattus norvegicus, UniProt P43253); experiment: IP receptor activity assay: cyclic AMP accumulation (cAMP Flashplate) in CHO cells; assay type: cell-based; settings: CHO cells expressing the rat prostanoid IP receptor
T2 construct: expressed in transfected cells; host or cells: Chinese Hamster Ovary cells (kept under geneticin)
T2 sequence (P43253 whole entry): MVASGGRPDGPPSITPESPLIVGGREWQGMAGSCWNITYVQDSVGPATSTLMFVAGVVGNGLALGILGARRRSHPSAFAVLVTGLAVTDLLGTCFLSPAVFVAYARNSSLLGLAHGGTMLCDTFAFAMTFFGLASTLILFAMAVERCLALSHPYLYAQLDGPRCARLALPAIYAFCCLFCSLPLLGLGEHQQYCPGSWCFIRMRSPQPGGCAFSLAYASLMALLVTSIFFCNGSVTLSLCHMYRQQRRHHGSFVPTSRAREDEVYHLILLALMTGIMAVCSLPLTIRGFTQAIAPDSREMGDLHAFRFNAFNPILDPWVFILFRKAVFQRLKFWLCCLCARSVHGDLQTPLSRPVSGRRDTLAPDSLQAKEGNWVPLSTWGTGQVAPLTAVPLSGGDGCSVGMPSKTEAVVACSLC
Description: The IP receptor agonist potency of compounds of this invention in vitro was determined by measuring the agonist-mediated cyclic AMP accumulation in an assay utilizing Chinese Hamster Ovary cells expressing the rat prostanoid IP receptor. Cyclic AMP levels were determined using a commercially available Adenylate Cyclase cAMP Flashplate Assay.
Chinese Hamster Ovary cells expressing the rat prostanoid IP receptor were maintained in Ham's Mixture with 10% fetal bovine serum, […] geneticin in 5% carbon dioxide ([…]). Cells were harvested at approximately 90% confluency using Dulbecco's Phosphate-Buffered saline containing 2 mM EDTA, and washed once at 1000×g and resuspended in Wash Buffer. A sample was aliquoted for protein determination. The cell suspension was centrifuged at 1000×g and adjusted to 110–140 E+3 cells/50 μl in the “Stimulation and Detection Buffer” from the assay kit.
The test compounds or vehicle were incubated with 50 μl cells (110–140 E+3 cells) for 5 minutes at room temperature. After the incubation, 100 μl lysis/tracer solution was added to the wells and the radioactivity counted on a Packard Topcount microplate scintillation counter after overnight incubation. The amount of radioactive cAMP bound to the antibody is inversely proportional to the concentration of added non-radioactive cAMP. […]

Q: For `COc1ccc(C(=O)NCc2ccc(NC3=NCCN3)cc2)cc1` [compound 96, N-[4-(4,5-Dihydro-1H-imidazol-2-yl-amino)-benzyl]-4-methoxy-benzamide], which inhibition at 1 µM (hERG potassium channel; pH 7.4, at 1 uM) is on record?
A: 4.3 ± 4.4%

Q: What about the inhibition at 10 µM (hERG potassium channel; pH 7.4, at 10 uM) of the same molecule?
A: 10.8 ± 7.2%

Q: And the Ki [1]?
A: ~7.59 nM
